Reference: patent US20120101083A1, “S1P1 AGONISTS COMPRISING A BICYCLIC N-CONTAINING RING” (GLAXO GROUP LIMITED, priority 2009, published 2012)
pEC50: −log10 of the molar value. Counter-ions that a name gives are not always drawn.

The compounds below were run against T1, S1P1 (PathHunter CHO-K1 EDG1 β-Arrestin cell line) (Homo sapiens, UniProt P21453) (assay: S1P-1 β-Arrestin recruitment assay). Conditions: CHO-K1 EDG1 β-Arrestin cells, chemi-luminescence.
T1 construct: host or cells: PathHunter CHO-K1 EDG1 β-Arrestin cell line
Type: cell-based
Procedure: S1P-1 β-Arrestin Recruitment Assay
β-Arrestin recruitment assays were carried out using the PathHunter CHO-K1 EDG1
β-Arrestin cell line (DiscoveRx Corporation) in a chemi-luminescence detection assay. This cell line stably expresses β-Arrestin 2 and S1P1 fused to complementing portions of β-galactosidase (‘EA’ and ‘pro-link’, respectively) which associate upon Arrestin recruitment to form functional β-galactosidase enzyme.
Cells were grown to 80% confluency in Growth Medium (F12 nutrient HAMS supplemented with 10% heat-inactivated USA FBS, 1% L-glutamax, 800 μg/ml Geneticin and 300 μg/ml Hygromycin). Cells were harvested from the flask using Enzyme Free Cell Dissociation Buffer (Gibco) and washed from flasks with Optimem solution (Gibco). Cells were then centrifuged at 1000 rpm for 2-3 min and resuspended in Assay Buffer (Prepared from Sigma kit H1387 supplemented with 20 ml/L HEPES, 4.7 ml/L NaHCO3, 0.1% pluronic acid F-68 solution, 0.1% BSA and adjusted to pH 7.4 using sodium hydroxide at 1×10^6 cells/ml. Cells were dispensed into assay plates containing compounds (100n1/well of a solution of test compound in 100% DMSO) at 1×10^4 cells/well and incubated at 37° C./5% CO2 for 90 min followed by 15 min at room temperature. 5 μl detection mix (1 part Galacton Star, 5 parts Emerald II, 19 parts Assay Buffer; DiscoveRx) were added per well and the plates incubated at room temperature for 60 min. Luminescence was quantified using a Viewlux plate reader.

T1 sequence (P21453 whole entry): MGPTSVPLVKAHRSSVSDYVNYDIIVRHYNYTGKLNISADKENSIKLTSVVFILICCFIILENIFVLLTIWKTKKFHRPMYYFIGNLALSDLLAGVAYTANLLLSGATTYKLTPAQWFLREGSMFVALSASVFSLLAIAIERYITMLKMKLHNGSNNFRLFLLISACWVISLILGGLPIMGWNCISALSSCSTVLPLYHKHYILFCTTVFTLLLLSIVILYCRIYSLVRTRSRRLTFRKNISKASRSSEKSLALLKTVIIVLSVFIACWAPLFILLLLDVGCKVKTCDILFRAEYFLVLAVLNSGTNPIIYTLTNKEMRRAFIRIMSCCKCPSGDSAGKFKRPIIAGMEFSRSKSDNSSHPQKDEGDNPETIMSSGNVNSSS
T1 sequence (P32121 whole entry partner): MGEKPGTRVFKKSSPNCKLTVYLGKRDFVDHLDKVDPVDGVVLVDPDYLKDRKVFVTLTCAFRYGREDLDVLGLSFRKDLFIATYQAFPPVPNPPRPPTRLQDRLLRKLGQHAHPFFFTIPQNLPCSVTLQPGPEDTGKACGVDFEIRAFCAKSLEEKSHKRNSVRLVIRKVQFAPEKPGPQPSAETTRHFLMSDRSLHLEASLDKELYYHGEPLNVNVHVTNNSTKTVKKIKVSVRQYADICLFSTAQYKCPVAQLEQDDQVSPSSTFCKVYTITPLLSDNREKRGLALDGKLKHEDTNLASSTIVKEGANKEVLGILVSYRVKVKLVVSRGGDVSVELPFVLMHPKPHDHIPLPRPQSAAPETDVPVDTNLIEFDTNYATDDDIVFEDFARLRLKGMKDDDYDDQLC

Cc1c(-c2noc(-c3ccc(OC(C)C)c(C#N)c3)n2)ccc2c1CCN(C(=O)CN[C@@H](C)CO)C2 [Example 130, 5-[3-(2-{N-[(1S)-2-hydroxy-1-methylethyl]glycyl}-5-methyl-1,2,3,4-tetrahydro-6-isoquinolinyl)-1,2,4-oxadiazol-5-yl]-2-[(1-methylethyl)oxy]benzonitrile] and Cc1c(-c2noc(-c3ccc(OC(C)C)c(C#N)c3)n2)ccc2c1CCN(C(=O)CNCCO)C2 [Example 131, formic acid-5-(3-{2-[N-(2-hydroxyethyl)glycyl]-5-methyl-1,2,3,4-tetrahydro-6-isoquinolinyl}-1,2,4-oxadiazol-5-yl)-2-[(1-methylethyl)oxy]benzonitrile (1:1)] cannot be ordered by pEC50: no less than 8.00 for the first, no less than 8.00 for the second.

Cc1c(-c2noc(-c3ccc(OC(C)C)c(Cl)c3)n2)ccc2c1CCN(CC(=O)NCCO)C2 [Example 136, 2-[6-(5-{3-chloro-4-[(1-methylethyl)oxy]phenyl}-1,2,4-oxadiazol-3-yl)-5-methyl-3,4-dihydro-2(1H)-isoquinolinyl]-N-(2-hydroxyethyl)acetamide hydrochloride] and Cc1c(-c2noc(-c3cnc(OC(C)C)c(C#N)c3)n2)ccc2c1CCN(CC(=O)N[C@@H](C)CO)C2 [Example 170, 2-[6-(5-{5-cyano-6-[(1-methylethyl)oxy]-3-pyridinyl}-1,2,4-oxadiazol-3-yl)-5-methyl-3,4-dihydro-2(1H)-isoquinolinyl]-N-[(1S)-2-hydroxy-1-methylethyl]acetamide hydrochloride] cannot be ordered by pEC50: no less than 8.00 for the first, no less than 8.00 for the second.

Cc1c(-c2noc(-c3cnc(OC(C)C)c(Cl)c3)n2)ccc2c1CCN(C(CO)CO)C2 [Example 144, 2-[6-(5-{5-chloro-6-[(1-methylethyl)oxy]-3-pyridinyl}-1,2,4-oxadiazol-3-yl)-5-methyl-3,4-dihydro-2(1H)-isoquinolinyl]-1,3-propanediol] and CC(C)Oc1ccc(-c2nc(-c3ccc4c(c3)CCN(C(C)C(=O)NCCO)CC4)no2)cc1C#N (stereo not shown) [Example 161, 2-[7-(5-{3-cyano-4-[(1-methylethyl)oxy]phenyl}-1,2,4-oxadiazol-3-yl)-1,2,4,5-tetrahydro-3H-3-benzazepin-3-yl]-N-(2-hydroxyethyl)propanamide hydrochloride] cannot be ordered by pEC50: no less than 7.00 for the first, no less than 7.00 for the second.

CC(C)Oc1ccc(-c2nc(-c3ccc4c(c3)CCN(CC(=O)NCCCO)CC4)no2)cc1C#N [Example 157, 2-[7-(5-{3-cyano-4-[(1-methylethyl)oxy]phenyl}-1,2,4-oxadiazol-3-yl)-1,2,4,5-tetrahydro-3H-3-benzazepin-3-yl]-N-(3-hydroxypropyl)acetamide] and CC(C)Oc1ccc(-c2nc(-c3ccc4c(c3)CCN(C[C@@H](O)C(=O)NCCO)CC4)no2)cc1C#N [Example 164, (2R)-3-[7-(5-{3-cyano-4-[(1-methylethyl)oxy]phenyl}-1,2,4-oxadiazol-3-yl)-1,2,4,5-tetrahydro-3H-3-benzazepin-3-yl]-2-hydroxy-N-(2-hydroxyethyl)propanamide hydrochloride] cannot be ordered by pEC50: no less than 8.00 for the first, no less than 8.00 for the second.

CC(C)Oc1ccc(-c2nc(-c3ccc4c(c3)CCN(C(C)C(=O)N[C@H](C)CO)CC4)no2)cc1C#N (stereo partly drawn) [Example 162, 2-[7-(5-{3-cyano-4-[(1-methylethyl)oxy]phenyl}-1,2,4-oxadiazol-3-yl)-1,2,4,5-tetrahydro-3H-3-benzazepin-3-yl]-N-(1R)-2-hydroxy-1-methylethyl]propanamide hydrochloride] and CC(C)Oc1ccc(-c2nc(-c3ccc4c(c3)CCN(C[C@@H](O)C(=O)N[C@H](C)CO)CC4)no2)cc1C#N [Example 165, (2R)-3-[7-(5-{3-cyano-4-[(1-methylethyl)oxy]phenyl}-1,2,4-oxadiazol-3-yl)-1,2,4,5-tetrahydro-3H-3-benzazepin-3-yl]-2-hydroxy-N-(1R)-2-hydroxy-1-methylethyl]propanamide hydrochloride] cannot be ordered by pEC50: no less than 7.00 for the first, no less than 8.00 for the second.
